Values of other authors, collected in US20110104282A1, “New Therapy of Treatment of the Irritable Bowel Syndrome” (Karolinska Institutet Innovations AB, priority 2008, published 2011).

Conditions: on occasion

N[C@@H](Cc1c[nH]c2ccccc12)C(=O)O [tryptophan]
adverse side effects of high doses: intestinal discomfort and nausea
